Data published in patent EP4178959B1, “NITROGEN HETEROCYCLIC CYTOKININ DERIVATIVES, COMPOSITIONS CONTAINING THESE DERIVATIVES AND USE THEREOF” (Univerzita Palackého v Olomouci, priority 2020, dated 2022).

Assays:
[1] = Calcein AM cytotoxicity assay, NIH3T3 cells; settings: mouse; for CC50 at 72 h: nih3t3 cells
Experimental: (§1) All compound concentrations were examined in duplicates. […] Zero cytotoxicity is a basic prerequisite for the use of these substances in cosmetical applications. To assess the antitumor activity, the toxicity of new derivatives on panels containing cell lines of different histogenic and species origin was tested (Table 5). […] The compounds listed in Table 5 can be divided into 2 groups.
(§2) The first group contains "classical cytokinins" represented by 6-substituted purines (their effects are already known). The second group includes novel 2-fluoro-N6-substituted-9-(2-oxacycloalkyl)-9H-purine-6-amine derivatives. […] Low cytotoxicity (high IC50 value) of the compounds is the basic prerequisite for cosmetic and medical applications. […] Table 5: Cytotoxicity of novel compounds for different normal cell lines tested / IC50 (µmol/L)

excised wheat leaf tips = test: Senescence inhibition on winter wheat leaf segments (chlorophyll retention); design: species or system Triticum aestivum cv. Hereward; settings: for Concentration with highest activity: retention of chlorophyll
Experimental: Seeds of winter wheat, Triticum aestivum cv. Hereward, were washed under running water for 24 hours and then sown on vermiculite soaked with the Knop's solution. They were placed in the grow chamber at 25 °C with a 16/8 h light period at 50 μmol.m^-2.s^-1. After 7 days, the first leaf was fully developed and the second leaf had started to grow. A tip section of the first leaf, approximately 35 mm long, was removed from 5 seedlings and trimmed slightly to a combined weight of 100 mg. The basal ends of the five leaf tips were placed in the wells of a microtiter polystyrene plate containing 150 μl of the solution of the tested compound each. The entire plate was inserted into a plastic box lined with paper tissues soaked with distilled water to prevent leaf sections from drying out. […] The absorbance of the extract was recorded at 665 nm. In addition, chlorophyll extracts from fresh leaves and leaf tips incubated in deionised water were measured. From the obtained data, the concetration with the highest activity was selected for each compound tested. Relative activity of the compound at this concentration was calculated (Table 7). […] The values shown are means of five replicates and the whole experiment was repeated twice. The compounds to be tested were dissolved in dimethylsulfoxide (DMSO) and the solution brought up to 10^-3 M with distilled water. […] The compounds listed in Table 7 can be divided into 2 groups. The first group contains "classical 6,9-disubstituted purines (KTHP as a control)" known in prior art. […] Table 9: […]

[2] = Calcein AM cytotoxicity assay, B10A.4 cells; settings: mouse; for CC50 at 72 h: b10a.4 macrophages
Experimental: as §1, §2

[3] = Calcein AM cytotoxicity assay, BJ cells; settings: human; for CC50 at 72 h: bj fibroblasts
Experimental: as §1, §2

[4] = retention of chlorophyll in excised wheat leaf tips, 96 h in the dark, at concentration with highest activity
[5] = Cytotoxicity IC50, B10A.4, first column headed B10A.4
[6] = Cytotoxicity IC50, B10A.4, second column headed B10A.4

Row | Structure (SMILES) | CC50 at 72 h [1] | Concentration with highest activity (excised wheat leaf tips) | Activity (%) [10^-4mol.l^-1 KTHP = 100%] (excised wheat leaf tips; [4]) | CC50 at 72 h [2, 5] | CC50 at 72 h [3] | CC50 at 72 h [2, 6] | IC50 at 72 h [1] | IC50 at 72 h [2, 5] | IC50 at 72 h [2, 6] | IC50 at 72 h [3] | Emax (excised wheat leaf tips; Triticum aestivum, foliar, retention of chlorophyll in excised wheat leaf tips, 96 h in the dark, at concentration with highest activity, read-out: Activity (%) [10^-4mol.l^-1 KTHP = 100%])
1 | Cc1cc(O)cc(CNc2nc(F)nc3c2ncn3C2CCCO2)c1 (stereo not shown) [Compound 52] | > 167 µM | 10^-4 mol.l^-1 | 23 (± 1) % | > 167 µM | > 167 µM | – | – | – | – | – | –
2 | COc1ccc(CNc2nc(F)nc3c2ncn3C2CCCCO2)o1 (stereo not shown) [Compound 63] | > 167 µM | 10^-4 mol.l^-1 | 97 (± 5) % | > 167 µM | > 167 µM | – | – | – | – | – | –
3 | Cc1ccc(O)c(CNc2nc(F)nc3c2ncn3C2CCCO2)c1 (stereo not shown) [Compound 50] | > 167 µM | 10^-4 mol.l^-1 | 82 (± 12) % | > 167 µM | > 167 µM | – | – | – | – | – | –
4 | Oc1ccccc1CNc1nc(F)nc2c1ncn2C1CCCO1 (stereo not shown) [Compound 14] | > 167 µM | 10^-4 mol.l^-1 | 53.6 (± 7) % | > 167 µM | > 167 µM | > 167 µM | – | – | – | – | –
5 | COc1cc(O)cc(CNc2nc(F)nc3c2ncn3C2CCCO2)c1 (stereo not shown) [Compound 44] | > 167 µM | 10^-4 mol.l^-1 | 47 (± 11) % | > 167 µM | > 167 µM | – | – | – | – | – | –
6 | c1coc(CNc2ncnc3[nH]cnc23)c1 [Kinetin, reference compound] | – | – | – | – | – | – | 133 µM | > 167 µM | 164 µM | 148 µM | –
7 | Oc1ccc(CNc2nc(F)nc3c2ncn3C2CCCO2)o1 (stereo not shown) [Compound 55] | > 167 µM | 10^-4 mol.l^-1 | 101 (± 17) % | > 167 µM | > 167 µM | – | – | – | – | – | –
8 | Nc1ncnc2nc[nH]c12 [Adenine, reference compound] | – | – | – | – | – | – | > 167 µM | > 167 µM | > 167 µM | > 167 µM | –
9 | C/C(=C\CNc1nc(F)nc2c1ncn2C1CCCCO1)CO (stereo not shown) [Compound 70] | > 167 µM | 10^-4 mol.l^-1 | 126 (± 12) % | > 167 µM | > 167 µM | – | – | – | – | – | –
10 | Oc1ccc(CNc2nc(F)nc3c2ncn3C2CCCCO2)cc1 (stereo not shown) [Compound 66, 2-Fluoro-6-[(4-hydroxybenzyl)amino]-9-(tetrahydro-2H-pyran-2-yl)-9H-purine] | – | – | – | – | – | – | > 167 µM | > 167 µM | – | > 167 µM | 74%
11 | COc1ccc(OC)c(CNc2nc(F)nc3c2ncn3C2CCCO2)c1 (stereo not shown) [Compound 37] | > 167 µM | 10^-4 mol.l^-1 | 121.8 (± 17) % | > 167 µM | > 167 µM | – | – | – | – | – | –
12 | COc1cccc(OC)c1CNc1nc(F)nc2c1ncn2C1CCCO1 (stereo not shown) [Compound 38] | > 167 µM | 10^-4 mol.l^-1 | 128 (± 16) % | > 167 µM | > 167 µM | – | – | – | – | – | –
13 | COc1ccc(CNc2nc(F)nc3c2ncn3C2CCCO2)c(OC)c1 (stereo not shown) [Compound 36] | > 167 µM | 10^-4 mol.l^-1 | 125.6 (± 15) % | > 167 µM | > 167 µM | – | – | – | – | – | –
14 | CC(C)=CCNc1ncnc2nc[nH]c12 [isopentenyladenine, reference compound] | 124 µM | – | – | > 167 µM | 134 µM | 147 µM | – | – | – | – | –
15 | c1coc(CNc2ncnc3c2ncn3C2CCCCO2)c1 (stereo not shown) [KTHP, 6-furfurylamino-9-tetrahydropyranylpurine, reference compound] | – | 10^-4 mol.l^-1 | 100 (± 8.6) % | – | – | – | – | – | – | – | –
16 | Oc1ccccc1CNc1ncnc2nc[nH]c12 [ortho-topolin, reference compound] | 94.1 µM | – | – | 87.5 µM | 108 µM | 94.3 µM | – | – | – | – | –
